# Measured values as given in patent US20060019958A1, “Immunity-related protein kinase inhibitors” (priority 2002, published 2006).
# Key:
# [1] = system: IκBα phosphorylation in HepG2 cells; experiment: Detection of phosphorylated IκBα by Western blot method under TNFα stimulation; format: cell-based; conditions: 40 ng/ml human TNFα, 20 μM MG-132
# Protocol: Detection of Phosphorylated IκBα by Western Blot Method
# […] After 45 minutes, 40 ng/ml of human TNFα was further added. Ten minutes after the addition of the TNFα, the cells were collected, and a cell lysate was prepared by using a tip-type ultrasonic processor (Dr.Hielsher; UP-50H). After the measurement of a protein concentration using a BCA protein assay kit by Pierce (BSA standard), 30 μg of the cell lysate was applied to each lane of 12% SDS slab gel (mini gel) and an electrophoresis was carried out. After the electrophoresis, a detection of phorphorylated IκBα by Western blot method was carried out using anti-phosphorylated IκBα (Ser32) antibody (Cell Signaling) as a primary antibody and […] as a secondary antibody.
# [2] = system: NF-κB activation by forced expression of MEKK-1 in HeLa cells; experiment: Inhibition of NF-κB activation by forced expression of MEKK-1 (luciferase reporter assay); format: cell-based, human; conditions: MEKK-1 forced expression, 24 hours
# Source text: Measurement of Inhibition of NF-κB Activation by Forced Expression of MEKK-1
# Using a transfection reagent(Effectene; QIAGEN), human uterine cancer cell strain HeLa was cotransfected with a plasumid (pNF κB-Luc Reporter Plasmid: STRATAGENE) integrated with an oligonucleotide having five tandem copies of NF-κB binding sequences(TGGGGACTTTCCGC) on an upstream region of the firefly luciferase gene(Luc) and the MEKK-1 gene-contained expression vector(pFC-MEKK: STRATAGENE) according to the QIAGEN's protocol, and the cells were incubated for 24 hours. After incubation in the presence or absence of a test compound for 24 hours, intracellular luciferase activity was measured by using PicaGene LT(TOYO INK MFG Co., Ltd.) and a chemical luminescence measurement apparatus(SPECTRAFluor Plus; TECAN). The inhibitory ratio was measured as a ratio relative to the value of the luciferase activity in the absence of the test compound.
Compound,Inhibition Ratio of I κ B phosphorylation(%) ([1]; Drug Concentration 2 μg/ml),further results
"CC(C)(C)c1nc(NC(=O)c2cc(Br)ccc2O)sc1N1CCOCC1 [compound 199, 5-Bromo-N-{4-[(1,1-dimethyl)ethyl]-5-morpholinothiazol-2-yl}-2-hydroxybenzamide]",47.9,
"O=C(Nc1cc(C(F)(F)F)cc(C(F)(F)F)c1)c1cc(Cl)ccc1O [Compound No. 50, N-[3,5-Bis(trifluoromethyl)phenyl]-5-chloro-2-hydroxybenzamide]",43.0,Inhibitory Ratio of NF-κB Activation(%) ([2]; Drug Concentration 1 μg/ml): 92.6%; Inhibitory Ratio of NF-κB Activation(%) ([2]; Drug Concentration 10 μg/ml): 93.2%
"CC(=O)Oc1ccccc1C(=O)Nc1cc(Cl)cc(Cl)c1 [compound 172, 2-acetoxy-N-(3,5-dichlorophenyl)benzamide]",,melting point: 218 to 219 °C
"CC(C)(C)C(=O)c1sc(NC(=O)c2cc(Cl)ccc2O)nc1C(C)(C)C [compound 195, 5-Chloro-N-{4-[(1,1-dimethyl)ethyl]-5-[(2,2-dimethyl)propionyl]thiazol-2-yl}-2-hydroxybenzamide]",63.5,
COc1cc(/C=C/C(=O)CC(=O)/C=C/c2ccc(O)c(OC)c2)ccc1O [curcumin],,Inhibition Ratio of I κ B phosphorylation(%) ([1]; Drug Concentration 100 μM): 51.6%
O=C(Nc1cc(C(F)(F)F)cc(C(F)(F)F)c1)c1cc(-n2cccc2)ccc1O [Compound No. 71],29.5,
"CC(C)(C)c1nc(NC(=O)c2cc(Br)ccc2O)sc1N1CCN(c2ccccc2)CC1 [compound 201, 5-Bromo-N-{4-[(1,1-dimethyl)ethyl]-5-(4-phenylpiperazin-1-yl)thiazol-2-yl}-2-hydroxybenzamide]",57.4,
"CC(C)(C)c1ccc(O)c(C(=O)Nc2cc(C(F)(F)F)cc(C(F)(F)F)c2)c1 [Compound No. 56, N-[3,5-Bis(trifluoromethyl)phenyl]-5-[(1,1-dimethyl)ethyl]-2-hydroxybenzamide]",31.3,
O=C(Nc1cc(C(F)(F)F)cc(C(F)(F)F)c1)c1cc(-c2ccccc2)ccc1O [Compound No. 67],43.8,
